Data from article PMC314469, “Protein Interaction Networks by Proteome Peptide Scanning” (PLoS Biology, 2004).

Tested on: Myo5 SH3 domain
Assay: SPOT analysis of cellulose-bound peptides (WISE), Myo5 SH3 domain (Dataset S4)
Format: binding, Saccharomyces cerevisiae
Conditions: for The normalized value in BLU units: Myo5 SH3 domain
[1] = SPOT analysis of cellulose-bound peptides probed with Myo5 SH3 domain, normalized value
[2] = SPOT analysis of membrane-bound peptides, normalized value (see methods)
[3] = SPOT analysis of cellulose-bound 14-mer yeast proteome peptides, normalized value, mean where the peptide was synthesized more than once
[4] = SPOT analysis of membrane-synthesized peptides probed with Myo5 SH3 domain, normalized value

QENPYIIPLPPSST
The normalized value in BLU units (SPOT analysis, Myo5 SH3) [1]: 240.4 BLU

TSNTKWTPITPSVI
The normalized value in BLU units [2]: 141.7 BLU

YWKLFFQPEYPVRM
The normalized value in BLU units [3]: 144.2 BLU

KQLKKQGPKRPSSA
The normalized value in BLU units [3]: 468.1 BLU

PKSPKAYPKLPDIQ
The normalized value in BLU units (SPOT analysis, Myo5 SH3) [4]: 357.2 BLU

INNTRLSPNSPTPP
The normalized value in BLU units [3]: 139.6 BLU

ELRDLDIPLVPSPK
The normalized value in BLU units (SPOT analysis, Myo5 SH3) [1]: 75.3 BLU

DEALRYCPDAPIVL
The normalized value in BLU units [2]: 127.1 BLU

QELPRAIPVMPFVD
The normalized value in BLU units [2]: 118.1 BLU

HNAAKPIPHVPQAS
The normalized value in BLU units [3]: 62.3 BLU

LNKTKLLPQSPILN
The normalized value in BLU units [2]: 117.8 BLU

STDHRGTPANPGRV
The normalized value in BLU units (SPOT analysis, Myo5 SH3) [4]: 257.1 BLU

IFVTRYLPYFPIMY
The normalized value in BLU units [2]: 156.7 BLU

TPTHHHIPHIPNQN
The normalized value in BLU units [3]: 147.9 BLU

KFRQMFKPLAPNTR
The normalized value in BLU units [3]: 1217.4 BLU

KQKKKPTPTRPYNY
The normalized value in BLU units [2]: 516.2 BLU

PGGPKFEPLYPREE
The normalized value in BLU units (SPOT analysis, Myo5 SH3) [4]: 90.0 BLU

LNPNRRAPRRPLST
The normalized value in BLU units (SPOT analysis, Myo5 SH3) [4]: 8004.0 BLU

KALWKIQPYLPEFS
The normalized value in BLU units (SPOT analysis, Myo5 SH3) [4]: 146.1 BLU

GLRELFLPGMPGLM
The normalized value in BLU units [3]: 159.7 BLU

AEIVKLTPKNPFYK
The normalized value in BLU units (SPOT analysis, Myo5 SH3) [4]: 102.1 BLU

ISNRRPVPRRPSQP
The normalized value in BLU units [2]: 377.4 BLU

APKYYVPPGIPTND
The normalized value in BLU units (SPOT analysis, Myo5 SH3) [1]: 10351.6 BLU

HAVLLNPPVAPTAE
The normalized value in BLU units (SPOT analysis, Myo5 SH3) [1]: 227.5 BLU

NLYQRTTPAGPDPS
The normalized value in BLU units [3]: 114.4 BLU

AVQLKRQPAQPRES
The normalized value in BLU units (SPOT analysis, Myo5 SH3) [4]: 237.9 BLU

SPSDFNKPDLPELI
The normalized value in BLU units (SPOT analysis, Myo5 SH3) [1]: 316.9 BLU

ELDTKTIPELPFCM
The normalized value in BLU units [2]: 53.2 BLU

HFLAYTNPRAPGKL
The normalized value in BLU units (SPOT analysis, Myo5 SH3) [1]: 111.7 BLU

SKRMKALPKGPAAL
The normalized value in BLU units [3]: 821.6 BLU

NASLLRDPSAPYAH
The normalized value in BLU units (SPOT analysis, Myo5 SH3) [1]: 133.8 BLU

EGTTKVDPIIPVPE
The normalized value in BLU units [3]: 180.1 BLU

YLNSLSEPLVPLAL
The normalized value in BLU units (SPOT analysis, Myo5 SH3) [1]: 131.6 BLU

EKLIKITPDTPFGF
The normalized value in BLU units (SPOT analysis, Myo5 SH3) [4]: 205.9 BLU

LTSFKGRPKPPKTL
The normalized value in BLU units [2]: 327.7 BLU

LPEKKNSPTTPSVF
The normalized value in BLU units [2]: 102.5 BLU

SENRLRTPLKPLVN
The normalized value in BLU units (SPOT analysis, Myo5 SH3) [1]: 272.3 BLU

SASTMAAPVHPQQQ
The normalized value in BLU units [3]: 164.3 BLU

MRRCKDAPIEPPKY
The normalized value in BLU units [2]: 155.1 BLU

TPPPPPLPSVLSS
The normalized value in BLU units (SPOT analysis, Myo5 SH3) [1]: 25804 BLU

TASGKTSPILPLQN
The normalized value in BLU units [2]: 290.5 BLU

DSYSRSRPTRPLGY
The normalized value in BLU units [2]: 261.3 BLU

NVLLKAKPNDPAAT
The normalized value in BLU units [2]: 155.5 BLU

ISHNKLSPSEPILC
The normalized value in BLU units [2]: 206.2 BLU

KLHEKYFPDLPKEV
The normalized value in BLU units [2]: 110.4 BLU

NPFPFPIPEIPSTQ
The normalized value in BLU units [3]: 86.5 BLU

AKINKVSPEDPWVL
The normalized value in BLU units (SPOT analysis, Myo5 SH3) [4]: 121.0 BLU

YGSEKGSPAGPSAV
The normalized value in BLU units [2]: 50.3 BLU

FNGDRLVPTLPTVS
The normalized value in BLU units [2]: 160.6 BLU

GLLLLFVPDSPYDP
The normalized value in BLU units [3]: 21.6 BLU

KPSGYYGPNSPLKL
The normalized value in BLU units [3]: 159.2 BLU

ILQILFEPMPPFNS
The normalized value in BLU units [3]: 200.5 BLU

ALGFYRAPGSPAPA
The normalized value in BLU units (SPOT analysis, Myo5 SH3) [1]: 100.8 BLU

TQMKRLKPVSPGLR
The normalized value in BLU units [2]: 1445.1 BLU

IAEWKNDPNNPNFE
The normalized value in BLU units [2]: 91.1 BLU

VEPEWYLPILPMIL
The normalized value in BLU units (SPOT analysis, Myo5 SH3) [1]: 235.7 BLU

PETRMDLPFSPEVN
The normalized value in BLU units (SPOT analysis, Myo5 SH3) [1]: 130.3 BLU

FRPHRLAPSAPATK
The normalized value in BLU units [2]: 1405.4 BLU

TTTIKNRPVPPPLP
The normalized value in BLU units (SPOT analysis, Myo5 SH3) [4]: 1868.9 BLU

PKCEKIEPLSPSFK
The normalized value in BLU units (SPOT analysis, Myo5 SH3) [4]: 116.4 BLU

AKSNKVSPEDPAVQ
The normalized value in BLU units [3]: 371.0 BLU

RFSSRRAPIAPSGK
The normalized value in BLU units [3]: 564.4 BLU

VLGPKYDPKCPEEH
The normalized value in BLU units (SPOT analysis, Myo5 SH3) [4]: 156.7 BLU

AEAYLVTPEEPAKN
The normalized value in BLU units [3]: 39.6 BLU

NEFLHFDPHIPQPA
The normalized value in BLU units (SPOT analysis, Myo5 SH3) [1]: 156.4 BLU

APVVKSEPSLPRMR
The normalized value in BLU units (SPOT analysis, Myo5 SH3) [4]: 241.2 BLU

KTKKKTVPVKPLQL
The normalized value in BLU units [3]: 358.9 BLU

LSFDRPPPLTPEKN
The normalized value in BLU units (SPOT analysis, Myo5 SH3) [4]: 174.4 BLU

AANAHISPPVPGPA
The normalized value in BLU units (SPOT analysis, Myo5 SH3) [1]: 28.6 BLU

PIRLRKRPPPPPPV
The normalized value in BLU units [2]: 60274.0 BLU

RFWTRARPIDPNAY
The normalized value in BLU units (SPOT analysis, Myo5 SH3) [4]: 279.1 BLU

EAGDFEQPKGPAGA
The normalized value in BLU units (SPOT analysis, Myo5 SH3) [1]: 49.8 BLU

GESHYKPPSTPKIN
The normalized value in BLU units (SPOT analysis, Myo5 SH3) [1]: 721.8 BLU

ALSTKGYPHEPPLL
The normalized value in BLU units (SPOT analysis, Myo5 SH3) [4]: 138.6 BLU

TPTPHPHPHTPHPH
The normalized value in BLU units [3]: 157.9 BLU

IESLREIPYGPDFD
The normalized value in BLU units (SPOT analysis, Myo5 SH3) [4]: 115.6 BLU

KYCFKLVPPQPGSK
The normalized value in BLU units [2]: 218.8 BLU

VRSKRLFPVRPMAT
The normalized value in BLU units [2]: 503.5 BLU

VPNRWATPLDPSIL
The normalized value in BLU units (SPOT analysis, Myo5 SH3) [1]: 125.7 BLU

EAYRLNYPELPRLT
The normalized value in BLU units [3]: 125.1 BLU

KAPYLVQPNVPEKH
The normalized value in BLU units [3]: 130.6 BLU

LASDKGLPMIPAFV
The normalized value in BLU units (SPOT analysis, Myo5 SH3) [4]: 79.9 BLU

NALGLDPPPSPEDP
The normalized value in BLU units (SPOT analysis, Myo5 SH3) [1]: 240.8 BLU

QSKTKPLPVEPASP
The normalized value in BLU units [2]: 122.1 BLU

MEEPFIWPEEPRPD
The normalized value in BLU units [3]: 79.7 BLU

RIRDKSKPSSPTAT
The normalized value in BLU units (SPOT analysis, Myo5 SH3) [4]: 546.8 BLU

GSYIKRTPKIPEKD
The normalized value in BLU units (SPOT analysis, Myo5 SH3) [4]: 206.2 BLU

QELRFLVPLVPLLV
The normalized value in BLU units (SPOT analysis, Myo5 SH3) [1]: 119.1 BLU

TELNLSCPNVPGKP
The normalized value in BLU units [3]: 227.7 BLU

VARPLSVPGSPRDL
The normalized value in BLU units (SPOT analysis, Myo5 SH3) [1]: 186.0 BLU

IARPLSVPGSPKVR
The normalized value in BLU units (SPOT analysis, Myo5 SH3) [1]: 382.9 BLU

DFSSYGPPGTPGYD
The normalized value in BLU units (SPOT analysis, Myo5 SH3) [1]: 108.5 BLU

QRLDRDKPHEPNGY
The normalized value in BLU units (SPOT analysis, Myo5 SH3) [4]: 217.9 BLU

LFKRLPVPAPPMDS
The normalized value in BLU units (SPOT analysis, Myo5 SH3) [1]: 145.1 BLU

MAFIKILPNNPWPF
The normalized value in BLU units (SPOT analysis, Myo5 SH3) [4]: 59.9 BLU

EDLVKKPPFIPSPT
The normalized value in BLU units [2]: 755.9 BLU

LPLSRVQPVQPSQT
The normalized value in BLU units (SPOT analysis, Myo5 SH3) [4]: 122.5 BLU

NTVEKLQPGLPVII
The normalized value in BLU units [2]: 279.7 BLU

GSQWKNHPDWPFWV
The normalized value in BLU units [2]: 108.4 BLU

KEFRFIFPLQPLFI
The normalized value in BLU units (SPOT analysis, Myo5 SH3) [1]: 749.7 BLU

NAIAMALPNEPYPA
The normalized value in BLU units (SPOT analysis, Myo5 SH3) [1]: 96.8 BLU

LPKLKSNPSVPHLH
The normalized value in BLU units [3]: 193.1 BLU

GLDLKWEPSTPQRK
The normalized value in BLU units [2]: 164.4 BLU

HLFHLTTPQDPRLL
The normalized value in BLU units [3]: 245.7 BLU

KALPKRRPSPPLQS
The normalized value in BLU units (SPOT analysis, Myo5 SH3) [4]: 1137.8 BLU

TYIWRYLPAPPVCI
The normalized value in BLU units [2]: 444.5 BLU

VLTKMNAPQKPEDI
The normalized value in BLU units [3]: 296.2 BLU

VPLPFGIPPFPMFP
The normalized value in BLU units (SPOT analysis, Myo5 SH3) [1]: 11610.9 BLU

NPLYWLLPSHPYTI
The normalized value in BLU units (SPOT analysis, Myo5 SH3) [1]: 165.0 BLU

PPKLLVYPESPETN
The normalized value in BLU units [3]: 91.3 BLU

NEDTFLPPPPPPPS
The normalized value in BLU units (SPOT analysis, Myo5 SH3) [1]: 20439.9 BLU

EARPYSEPSEPEDS
The normalized value in BLU units (SPOT analysis, Myo5 SH3) [1]: 208.3 BLU

LSKLRLSPENPSNT
The normalized value in BLU units (SPOT analysis, Myo5 SH3) [4]: 157.2 BLU

KQRIRKIPGIPLMS
The normalized value in BLU units (SPOT analysis, Myo5 SH3) [4]: 621.8 BLU

NLHGYGHPNPPNEK
The normalized value in BLU units [3]: 216.6 BLU

DLSYYLRPIKPFNT
The normalized value in BLU units (SPOT analysis, Myo5 SH3) [1]: 160.7 BLU

LAIRLCWPPAPVTL
The normalized value in BLU units [3]: 154.7 BLU

REVDLPIPAQPGPP
The normalized value in BLU units (SPOT analysis, Myo5 SH3) [1]: 114.0 BLU

SLCALVGPVIPHTI
The normalized value in BLU units [3]: 28.4 BLU

SMAMRPIPPLPTES
The normalized value in BLU units [2]: 1326.7 BLU
